Experiments:
Plasmodium falciparum [1] = test: NOVARTIS: Inhibition of Plasmodium falciparum W2 (drug-resistant) proliferation in erythrocyte-based infection assay; format: functional, organism-based; settings: Plasmodium falciparum, W2; read-out: EC50
[2] = NOVARTIS: Cytotoxicity against human hepatocellular carcinoma cell line (Huh7); format: toxicity, cell-based, Huh-7; settings: Huh7 cells (hepatocellular carcinoma cell line)
Plasmodium falciparum [3] = test: NOVARTIS: Inhibition of Plasmodium falciparum 3D7 (drug-susceptible) proliferation in erythrocyte-based infection assay; format: functional, organism-based; settings: Plasmodium falciparum, 3D7

SMILES	EC50 (Plasmodium falciparum [1]) [nM]	CC50 [2] [nM]	EC50 (Plasmodium falciparum [3]) [nM]
CC=C[C@H]1O[C@@](O)([C@H](C)C(O)C(C)[C@@H]2OC(=O)C(OC)=CC(C)=C[C@H](C)[C@H](O)[C@H](CC)[C@H](O)C(C)CC(C)=CC=C[C@H]2OC)C[C@@H](O[C@@H]2C[C@H](O)[C@@H](OC(N)=O)[C@H](C)O2)[C@@H]1C (some centres undefined)	< 18.6	> 10000	> 503
CC(=NNC(=O)/C(=C\c1ccc([N+](=O)[O-])cc1)NC(=O)c1ccccc1)c1ccccn1	169	> 100000	343
O=C(CCc1ccccc1)c1ccccc1OCC(O)CN1CCCCC1 (centres undefined)	144	87900	881
FC(F)(F)c1cccc(C=NNc2nc3ccccc3[nH]2)c1	115	63200	94.6
COc1cccc(NC(=O)c2cccc3c(=O)c4c([nH]c23)CCCC4)c1	168	> 100000	957
COC(=O)C1=CNC=C(C(=O)OC)C1c1ccc(Cl)c([N+](=O)[O-])c1	165	> 100000	135
COc1ccccc1C1CC(c2ccccc2)=NN1C(=O)c1ccccc1 (centres undefined)	110	67000	262
Cc1oc2c(c1C(=O)N1CCC(C)CC1)C(=O)c1ccccc1C2=O	79.2	48300	222
CCc1ccc(C(Nc2cc(C)ccn2)c2ccc3cccnc3c2O)cc1 (centres undefined)	163	> 100000	1470
COc1ccc(C2CC(=O)C3=C(C2)NC(C)=C(C(=O)OC2CCCC2)C3c2ccc(F)cc2)cc1OC (centres undefined)	19.3	11600	12.6
O=C(Cc1ccccc1)N1CCOc2c(cc(-c3csc4ccccc34)cc2OCCc2ccccn2)C1	165	> 100000	257
C=CCSc1nc(N)c2c3c(sc2n1)CN(CCC)CC3	168	> 100000	623
COCC(=O)NCc1ccc(OC2CCN(CC(c3ccccc3)c3ccccc3)CC2)cc1	< 16.7	> 10000	460
Cc1cc(C)c2c(c1)-c1c(ssc1=S)C(C)(C)N2C(=O)COc1nc2ccccc2s1	169	> 100000	125
C=CC1CC23CC(C(OC(=O)CCC(=O)O)c4ccnc5ccc(OC)cc45)N2CCC13 (centres undefined)	77.5	45700	14
N=c1c2c(n(Cc3ccccc3Cl)c3c1CCC3)CCCC2	174	> 100000	222
Cc1ccc(Cn2c(SCc3ccc(C(=O)NCCc4ccccc4)cc3)nc3ccncc32)cc1	174	> 100000	700
COc1cccc(-c2ccc(O)c(CN3CCC(C)CC3)c2)n1	129	75000	337
CN(Cc1cc(-c2ccccc2)ccc1O)CC(O)c1ccccc1 (centres undefined)	18.1	> 10000	438
Cc1ccc(Cn2c(N3CCC(C(=O)NCc4ccccn4)CC3)nc3ccccc32)cc1	185	> 100000	484
FC(F)(F)c1ccccc1NC(=S)N1CCCN(c2nc3ccc(Cl)cc3s2)CC1	146	77800	119
Cc1ccc(C)c(Oc2c(C(F)(F)F)oc3c(CN4CCN(C)CC4)c(O)ccc3c2=O)c1	185	> 100000	832
CCOC(=O)c1c(CNCCN(CC)CC)n(C)c2cc(Br)c(O)cc12	185	> 100000	515
N#Cc1c(N)nc(C(Cl)(Cl)Cl)nc1-c1ccccc1	184	> 100000	498
CCOC(=O)C1=C(C)NC2=C(C(=O)CC(C)(C)C2)C1c1ccc(Cl)cc1Cl (centres undefined)	121	66000	281
COc1cc(NC(C)CCCN(Cc2ccc(F)cc2)C(=O)C(C)(C)CCl)c2ncccc2c1 (centres undefined)	< 3.43	> 1830	469
COc1ccc2[nH]c(SCC(=O)Nc3cccc(NC(=O)CSc4nc5cc(OC)ccc5[nH]4)n3)nc2c1	95.4	> 51000	123

SMILES	EC50 (Plasmodium falciparum [1]) [nM]	CC50 [2] [nM]	EC50 (Plasmodium falciparum [3]) [nM]
CC(C)CCN1C(=O)N(CCN(C)C)C(=O)C12CCN(Cc1ccc(O)cc1)CC2	123	68400	740
CCCOc1ccc(C2Sc3ccccc3N=C3C2=C(O)c2ccccc23)cc1OC (centres undefined)	178	> 100000	483
CCN(CC)C(=O)CSc1nnc(-c2ccccn2)n1-c1ccc(OC)cc1	< 5.58	3190	1290
Oc1ccc(-c2ccnc3cc(Cl)ccc23)cc1CNCC1(O)CCCCC1	< 23.8	> 13700	1020
CCOC(=O)C1=C(C)NC2=C(C(=O)C(C(=O)OCC)C(c3cccc(OC)c3)C2)C1c1ccc(OC)c(OC)c1 (centres undefined)	167	> 100000	376
CCc1c(C)nc2cc(-c3cc(OC)cc(OC)c3)nn2c1NCCCn1ccnc1	185	> 100000	2870
CCN(C(=O)CSc1nc(-c2ccc(C(C)C)cc2)no1)c1cccc(C)c1	183	> 100000	356
Cc1cc(C)n(N=Cc2ccc(Cl)cc2)c(=O)c1C#N	183	> 100000	1070
COC(=O)C1=C(C)NC2=C(C(=O)CC(c3ccc(OC)c(OC)c3)C2)C1c1ccc(Br)cc1 (centres undefined)	181	> 100000	450
FC(F)(F)c1cccc(NC(=S)N2CCCC2c2ccccc2Cl)c1 (centres undefined)	185	> 100000	187
CCOC(=O)C1=C(C)NC(=Cc2cc(C)n(-c3ccc(C)cc3)c2C)C1=O	169	> 100000	121
CCOC(=O)CCCCC(=O)c1[nH]c(=O)[nH]c1Cn1ccnc1	165	> 100000	152
CC[n+]1c(SC)ccc2cc(OC)ccc21	186	> 100000	92.4
Cc1ccn2c(NC(C)(C)CC(C)(C)C)c(-c3ccccc3OC(=O)CCc3ccccc3)nc2c1	18.6	> 10000	853
CC(C)CN(CC(=O)Nc1cc(C(C)(C)C)nn1-c1ccccc1)C(=O)c1cc(Cl)cc(Cl)c1	< 16.7	> 10000	1230
COc1ccc(C2Sc3ccccc3N=C3C2=C(O)c2ccccc23)cc1 (centres undefined)	174	> 100000	238
CC(C)C(=O)NCCCCNc1ccnc2cc(Cl)ccc12	< 18.5	> 10000	1600
COc1ccccc1NC(=O)N1CCN(C(=O)c2nc(-c3ccccc3)nc(C)c2C(=O)OC(C)C)CC1C (centres undefined)	< 16.9	> 10000	529
Nc1ccc(N2CCCCCC2)cc1	183	> 100000	153
CC(C)(C)c1ccc2c(c1)CN(C1CCCCC1)CO2	36.9	20800	99
CCN1c2ccccc2N(C)C1(C)c1ccccc1 (centres undefined)	49.3	28800	46.5
COc1ccc(-[n+]2cc(-c3ccc(Br)cc3)n3c2SCCC3)cc1	172	> 100000	609
Fc1cc(F)c(C2SCCN2C(=S)Nc2cccc(C(F)(F)F)c2)c(F)c1 (centres undefined)	187	> 100000	273
N#Cc1c2c(c(N3CCN(CCO)CC3)n3c1nc1ccccc13)CCC2	177	> 100000	207
CCCN1CCN(C(=O)C(=O)Nc2ccc3nc4n(c(=O)c3c2)CCCCC4)CC1	165	> 100000	1680
Cc1ccn2c(NC(C)(C)CC(C)(C)C)c(-c3ccccc3OC(=O)C3CCCCC3)nc2c1	18.7	> 10000	654

Source: ChEMBL document CHEMBL1156829 (Proc Natl Acad Sci U S A, 2008)
